In patent US5698411A, “Method for determining activity of enzymes in metabolically active whole cells” (priority 1995, dated 1997):
Structures can show the parent of a compound that is named as a salt. Numbered stars: 1 amine (or outer) side, 2 acyl side, 3 side chain; on linkers, the order of the positions; unused ones are H or OH. Bridge positions count the residues as written; N and C are the ends. Peptide text beside a SMILES is read from it. I, II: the chains in the order shown. Rhodamine110 = O=C1OC2(c3ccc(N[*:1])cc3Oc3cc(N[*:2])ccc32)c2ccccc21

Columns and labels:
Format in all cases: cell-based, human
lymphocytes = assay: aberrant enzyme activities in febrile children, lymphocytes (Table 7)
monocytes = assay: aberrant enzyme activities in febrile children, monocytes (Table 7)
granulocytes = assay: aberrant enzyme activities in febrile children, granulocytes (Table 7)

Row | Structure (SMILES) | aberrant enzyme activity, LYMPHS (lymphocytes; P92 Adenitis) | aberrant enzyme activity, LYMPHS (lymphocytes; P97 Pyelonephritis) | aberrant enzyme activity, LYMPHS (lymphocytes; P103 Viral Syndrome) | aberrant enzyme activity, MONOS (monocytes; P97 Pyelonephritis) | aberrant enzyme activity, LYMPHS (lymphocytes; P102 UTI) | aberrant enzyme activity, GRANS (granulocytes; P102 UTI) | aberrant enzyme activity, MONOS (monocytes; P92 Adenitis) | aberrant enzyme activity, MONOS (monocytes; P103 Viral Syndrome) | aberrant enzyme activity, GRANS (granulocytes; P92 Adenitis) | aberrant enzyme activity, GRANS (granulocytes; P97 Pyelonephritis) | aberrant enzyme activity, GRANS (granulocytes; P103 Viral Syndrome) | aberrant enzyme activity, MONOS (monocytes; P89 Viral Stomatitis) | aberrant enzyme activity, LYMPHS (lymphocytes; P88 Enteritis) | aberrant enzyme activity, LYMPHS (lymphocytes; P89 Viral Stomatitis) | aberrant enzyme activity, GRANS (granulocytes; P88 Enteritis) | aberrant enzyme activity, GRANS (granulocytes; P89 Viral Stomatitis) | also measured
1 | C[C@H](N)C(=O)N[C@@H](C)C(=O)Nc1ccc2c(c1)Oc1cc(NC(=O)[C@H](C)NC(=O)[C@H](C)N)ccc1C21OC(=O)c2ccccc21 [AA-TFA, (H-L-Ala--Ala)2 Rho 110 .2TFA] | .smallcircle. | .smallcircle. | .smallcircle. | – | – | – | – | – | – | – | – | – | – | – | – | – | –
2 | N=C(N)NCCC[C@H](N)C(=O)Nc1ccc2c(c1)Oc1cc(NC(=O)[C@@H](N)CCCNC(=N)N)ccc1C21OC(=O)c2ccccc21 (stereo partly drawn) [ARG, (H-L-Arg)2 Rho 110 .4TFA] | .smallcircle. | – | .smallcircle. | .smallcircle. | .smallcircle. | .smallcircle. | – | – | – | – | – | – | – | – | – | – | aberrant enzyme activity, MONOS (monocytes; P95 Viral Syndrome): .smallcircle.; aberrant enzyme activity, MONOS (monocytes; P96 Viral Syndrome): .smallcircle.; aberrant enzyme activity, MONOS (monocytes; P99 Viral Syndrome): .smallcircle.; aberrant enzyme activity, MONOS (monocytes; P102 UTI): .smallcircle.; aberrant enzyme activity, LYMPHS (lymphocytes; P95 Viral Syndrome): .smallcircle.; aberrant enzyme activity, LYMPHS (lymphocytes; P97 Pyelonephritis, listed as Arg-TFA): .smallcircle.; aberrant enzyme activity, LYMPHS (lymphocytes; P99 Viral Syndrome): .smallcircle.; aberrant enzyme activity, GRANS (granulocytes; P95 Viral Syndrome): .smallcircle.; aberrant enzyme activity, GRANS (granulocytes; P96 Viral Syndrome): .smallcircle.
3 | N[C@@H](CC(=O)O)C(=O)Nc1ccc2c(c1)Oc1cc(NC(=O)[C@@H](N)CC(=O)O)ccc1C21OC(=O)c2ccccc21 [ASP, (H-L-Asp)2 --Rho 110 .2TFA] | .smallcircle. | .smallcircle. | .smallcircle. | .smallcircle. | – | – | .smallcircle. | .smallcircle. | .smallcircle. | .smallcircle. | .smallcircle. | – | – | – | – | – | –
4 | O=C1OC2(c3ccc(OC4O[C@H](CO)[C@@H](O)[C@H](O)[C@H]4O)cc3Oc3cc(OC4O[C@H](CO)[C@@H](O)[C@H](O)[C@H]4O)ccc32)c2ccccc21 (stereo partly drawn) [DGLUC, (D-glucose)2 fluorescein] | .smallcircle. | – | - (>0.25 Decrease over normal range) | – | – | – | - (>0.25 Decrease over normal range) | + (>0.25 Increase over normal range) | + (>0.25 Increase over normal range) | – | + (>0.25 Increase over normal range) | .smallcircle. | .smallcircle. | .smallcircle. | .smallcircle. | + (>0.25 Increase over normal range) | aberrant enzyme activity, MONOS (monocytes; P88 Enteritis): - (>0.25 Decrease over normal range)
5 | CC(C)C[C@H](NC(=O)[C@@H]1CCCN1C(=O)CN)C(=O)NCC(=O)N1CCC[C@H]1C(=O)Nc1ccc2c(c1)Oc1cc(NC(=O)[C@@H]3CCCN3C(=O)CNC(=O)[C@H](CC(C)C)NC(=O)[C@@H]3CCCN3C(=O)CN)ccc1C21OC(=O)c2ccccc21 [GPLGP, (H-Gly--Pro--Leu--Gly--Pro)2 Rho 110 .2TFA] (I: H-GPLGP / II: H-GPLGP; linker I:C-II:C via Rhodamine110) | – | – | – | – | .smallcircle. | .smallcircle. | – | – | – | – | – | .smallcircle. | .smallcircle. | .smallcircle. | .smallcircle. | .smallcircle. | –
6 | C[C@H](NC(=O)[C@@H](N)CCCCN)C(=O)Nc1ccc2c(c1)Oc1cc(NC(=O)[C@H](C)NC(=O)[C@@H](N)CCCCN)ccc1C21OC(=O)c2ccccc21 [KA, (Lys-Ala)2 Rho 110] | .smallcircle. | .smallcircle. | .smallcircle. | + (>0.25 Increase over normal range) | .smallcircle. | .smallcircle. | .smallcircle. | .smallcircle. | .smallcircle. | .smallcircle. | .smallcircle. | .smallcircle. | .smallcircle. | .smallcircle. | .smallcircle. | .smallcircle. | aberrant enzyme activity, MONOS (monocytes; P88 Enteritis): .smallcircle.; aberrant enzyme activity, MONOS (monocytes; P95 Viral Syndrome): .smallcircle.; aberrant enzyme activity, MONOS (monocytes; P96 Viral Syndrome): .smallcircle.; aberrant enzyme activity, MONOS (monocytes; P99 Viral Syndrome): .smallcircle.; aberrant enzyme activity, MONOS (monocytes; P101 Fever -- Unknown Origin): + (>0.25 Increase over normal range); aberrant enzyme activity, MONOS (monocytes; P102 UTI): .smallcircle.; aberrant enzyme activity, LYMPHS (lymphocytes; P95 Viral Syndrome): .smallcircle.; aberrant enzyme activity, LYMPHS (lymphocytes; P96 Viral Syndrome): .smallcircle.; aberrant enzyme activity, LYMPHS (lymphocytes; P99 Viral Syndrome): .smallcircle.; aberrant enzyme activity, GRANS (granulocytes; P95 Viral Syndrome): .smallcircle.; aberrant enzyme activity, GRANS (granulocytes; P96 Viral Syndrome): .smallcircle.; aberrant enzyme activity, GRANS (granulocytes; P99 Viral Syndrome): .smallcircle.; aberrant enzyme activity, GRANS (granulocytes; P101 Fever -- Unknown Origin): + (>0.25 Increase over normal range)
7 | CC(C)C[C@H](NC(=O)CNC(=O)[C@@H](N)CC(C)C)C(=O)NCC(=O)Nc1ccc2c(c1)Oc1cc(NC(=O)CNC(=O)[C@H](CC(C)C)NC(=O)CNC(=O)[C@@H](N)CC(C)C)ccc1C21OC(=O)c2ccccc21 [LGLG, (H-L-Leu--Gly--Leu--Gly)2 Rho 110 .2TFA] (I: H-LGLG / II: H-LGLG; linker I:C-II:C via Rhodamine110) | .smallcircle. | .smallcircle. | .smallcircle. | .smallcircle. | – | – | .smallcircle. | .smallcircle. | .smallcircle. | .smallcircle. | .smallcircle. | – | – | – | – | – | –
